Experimental data reported in patent publication US8568736B2, “Polypeptide derivatives of parathyroid hormone (PTH)” (The General Hospital Corporation, priority 1999, dated 2013).
No end group written: not given here.

Experiments:
PTH-1 receptor [1] = biological target: T1, PTH-1 receptor (Homo sapiens, UniProt Q03431); test: cAMP stimulation in HKRK-B7 cells (LLC-PK1 stably transfected with hPTH-1 receptor); type: cell-based; parameters: expressed in transfected cells; host or cells: LLC-PK1 porcine kidney cells, clone HKRK-B7; conditions: for Emax / cAMP signaling activity (in words): HKRK-B7 cells; for Emax: Emax constrained to ±1 SD of rPTH(1-34) response at 100 nM; for cAMP signaling activity (in words): dose-response
T1 sequence (Q03431 27-593): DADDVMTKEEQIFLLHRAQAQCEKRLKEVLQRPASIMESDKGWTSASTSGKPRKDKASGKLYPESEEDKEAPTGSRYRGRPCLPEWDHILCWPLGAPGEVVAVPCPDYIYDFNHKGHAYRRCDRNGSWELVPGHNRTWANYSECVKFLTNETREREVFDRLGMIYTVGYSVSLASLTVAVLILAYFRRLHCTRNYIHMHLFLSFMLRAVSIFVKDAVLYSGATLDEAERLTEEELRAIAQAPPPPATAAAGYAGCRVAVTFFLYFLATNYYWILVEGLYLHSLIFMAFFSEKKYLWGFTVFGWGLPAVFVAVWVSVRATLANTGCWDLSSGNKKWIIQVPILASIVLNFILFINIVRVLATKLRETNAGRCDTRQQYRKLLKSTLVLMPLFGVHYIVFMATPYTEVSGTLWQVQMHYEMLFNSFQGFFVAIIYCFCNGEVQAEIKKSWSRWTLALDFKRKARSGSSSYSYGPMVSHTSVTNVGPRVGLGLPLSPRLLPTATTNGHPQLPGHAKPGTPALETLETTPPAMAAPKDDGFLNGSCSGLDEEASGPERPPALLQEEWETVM
Source text: (§1) Stably transfected derivatives of the porcine kidney cell line LLC-PK1, HKRK-B7 (Takasu, H., et al., J. Bone Miner. Res. 14:11-20 (1999)) and hPR2-20, express the human PTH-1 and human PTH-2 receptors respectively. The HKRK-B7 LLC-PK1 cell line expresses the hPTH-1 receptor at ˜1×10^6 receptors/cell (Takasu, H., et al., J. Bone Miner. Res. 14:11-20 (1999)), and the hPR2-22 LLC-PK1 cell line expresses the hPTH-2 receptor at ˜0.8×10^6 receptors/cell (provided by H. Takasu and F. R. Bringhurst, Endocrine Unit, Massachusetts General Hospital).
(§2) Stimulation of cells with peptide analogs was performed in 24-well plates. Cells were rinsed with 0.5 mL of binding buffer and treated with 200 μL of cAMP assay buffer (Dulbecco's modified Eagle's medium containing 2 mM 3-isobutyl-1-methylxanthine, 1 mg/mL bovine serum albumin, 35 mM Hepes-NaOH, pH 7.4) and 100 μL of binding buffer containing varying amounts of peptide analog (final volume=300 μL). The medium was removed after incubation for 1 h at room temperature, and the cells were frozen (−80° C.), lysed with 0.5 mL 50 mM HCl, and refrozen (−80° C.). The cAMP content of the diluted lysate was determined by radioimmunoassay. Where possible, cAMP EC50 and Maximum response values were determined using nonlinear regression (see below).
(§3) Intracellular cAMP accumulation may be measured as described by Abou-Samra et al., J. Biol. Chem. 262:1129, 1986) or other methods known to those of skill in the art. Intracellular cAMP is extracted by thawing the cells in 1 ml of 50 mM HCl and analyzed by a specific radioimmunoassay using an anti-cAMP antibody (e.g., Sigma, St. Louis, Mo.). A cAMP analog (2′-O-monosuccinyl-adenosine 3′:5′-cyclic monophosphate tyrosyl methyl ester, obtained from Sigma) which is used as a tracer for cAMP is iodinated by the chloramine T method. Free iodine is removed by adsorbing the iodinated cAMP analog onto a C18 Sep-pak cartridge (Waters, Milford, Mass.). After washing with dH2O, the iodinated cAMP analog is eluted from the Sep-pak Cartridge with 40% acetonitrille (ACN) and 0.1% trifluoroacetic acid (TFA). The iodinated cAMP analog is lyophilized, reconstituted in 1 ml 0.1% TFA, and injected into a C18 reverse phase HPLC column (Waters). The column is equilibrated with 10% ACN in 0.1% TFA, and eluted with gradient of 10-30% ACN in 0.1% TFA. This allows separation of the mono-iodinated cAMP analog from the non-iodinated cAMP analog. The tracer is stable for up to 4 months when stored at −20° C. The standard used for the assay, adenosine 3′:5′-cyclic monophosphate, is purchased from Sigma. Samples (1-10 µl of HCl extracts) or standards (0.04-100 fmol/tube) are diluted in 50 mM Na-acetate (pH 5.5), and acetylated with 10 μl of mixture of triethylamine and acetic anhydride (2:1 vol:vol). After acetylation, cAMP antiserum (100 μl) is added from a stock solution (1:4000) made in PBS (pH 7.4), 5 mM EDTA and 1% normal rabbit serum. The tracer is diluted in PBS (pH 7.4) with 0.1% BSA, and added (20,000 cpm/tube). The assay is incubated at 4° C. overnight. The bound tracer is precipitated by adding 100 μl of goat anti-rabbit antiserum (1:20 in PBS) and 1 ml of 7% polyethyleneglycol (MW 5000-6000), centrifuging at 2000 rpm for 30 min. at 4° C. The supernatant is removed and the bound radioactivity is counted in a gamma-counter (Micromedic). To compute the cAMP data, logit calculations were performed in Excel spreadsheets. Typically, the assay sensitivity is 0.1 fmol/tube, and the standard concentration that displaces 50% of tracer is 5 fmol/tube.
(§4) All calculations were performed using Microsoft Excel. Nonlinear regression analysis of cAMP stimulation data was performed using parameters, defined as the Minimum, Maximum, Emax, midpoint (EC50), and slope of the response curve. The predicted response (yp) for a given dose (x) of peptide was calculated using the following equation: yp=Min+[(Max−Min)/(1+(EC50/x)^slope)]. […]

PTH-1 receptor [2] = biological target: T1, PTH-1 receptor; parameters: expressed in transfected cells; host or cells: LLC-PK1 porcine kidney cells, clone HKRK-B7; conditions: HKRK-B7 cells; Luck et al. 1999; cited from earlier work
[3] = biological target: T2, rat PTH-1 receptor (endogenous, ROS 17/2.8 cells) (Rattus norvegicus, UniProt P25961); test: cAMP response in osteoblastic ROS 17/2.8 cells; type: cell-based; conditions: ROS 17/2.8 cells
T2 construct: The rat osteoblastic cell line ROS 17/2.8; endogenous in cells; host or cells: ROS 17/2.8 rat osteoblastic cells
T2 sequence (P25961 27-591): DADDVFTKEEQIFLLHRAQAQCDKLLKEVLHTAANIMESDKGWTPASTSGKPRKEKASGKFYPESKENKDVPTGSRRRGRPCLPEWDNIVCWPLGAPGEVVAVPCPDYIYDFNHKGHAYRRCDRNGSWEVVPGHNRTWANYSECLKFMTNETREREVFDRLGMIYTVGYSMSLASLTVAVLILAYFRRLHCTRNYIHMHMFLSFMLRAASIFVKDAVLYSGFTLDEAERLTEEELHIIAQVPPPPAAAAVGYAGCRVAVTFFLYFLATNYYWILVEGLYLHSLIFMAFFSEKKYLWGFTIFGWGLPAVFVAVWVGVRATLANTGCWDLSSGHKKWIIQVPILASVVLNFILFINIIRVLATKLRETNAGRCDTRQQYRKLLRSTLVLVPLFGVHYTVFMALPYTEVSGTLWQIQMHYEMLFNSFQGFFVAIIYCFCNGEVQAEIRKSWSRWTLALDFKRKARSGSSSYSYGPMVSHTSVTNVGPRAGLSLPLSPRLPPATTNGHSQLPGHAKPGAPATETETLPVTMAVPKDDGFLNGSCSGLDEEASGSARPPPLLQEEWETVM
Method: The rat osteoblastic cell line ROS 17/2.8 (Majeska, R. J., et al, Endocrinology 107:1494-1503 (1980)) expresses endogenous PTH-1 receptors at levels of 80,000 per cell and the human osteoblastic cell line, SAOS-2, express endogenous PTH-1 receptors at levels of ˜30,000 per cell.
as §2
All calculations were performed using Microsoft Excel. Nonlinear regression analysis of cAMP stimulation data was performed using parameters, defined as the Minimum, Maximum, Emax, midpoint (EC50), and slope of the response curve. The predicted response (yp) for a given dose (x) of peptide was calculated using the following equation: yp=Min+[(Max−Min)/(1+(EC50/x)^slope)]. The initial parameter values were estimated from the primary data, and the Excel “Solver function” was then used to vary the four parameters in order to minimize the differences between the predicted and actual responses (least-squares method) (Bowen, W., & Jerman, J., Trends in Pharmacol. Sci. 16:413-417 (1995)). The statistical significance between two data sets was determined using a one-tailed Student's t-test, assuming unequal variances for the two sets.

hPTH-2 Receptor = biological target: T3, hPTH-2 Receptor (Homo sapiens, UniProt P49190); test: cAMP stimulation in LLC-P2R-22 cells (LLC-PK1 stably transfected with hPTH-2 receptor); type: cell-based; conditions: LLC-P2R-22 cells (hPTH-2 Receptor)
T3 construct: expressed in transfected cells; host or cells: LLC-PK1 porcine kidney cells (clone given as hPR2-20, hPR2-22, LLC-P2R-22 or P2R-22)
Source text: as §1, §2, §3, §4

PTH-1 receptor [4] = biological target: T1, PTH-1 receptor; conditions: literature; cited from earlier work
[5] = subcutaneous, in combination with oral estrogen, postmenopausal osteoporosis; cited from earlier work
[6] = test system: truncated PTH-1 receptor rP1R-ΔNt; conditions: truncated rat PTH receptor vs intact rPTH-1 receptor; Luck et al. 1999; cited from earlier work
[7] = biological target: T4, cloned rat PTH-1 receptor (Rattus norvegicus, UniProt P25961); conditions: CHO cells, Azurani 1996; cited from earlier work
T4 construct: host or cells: CHO cells
T4 sequence (P25961 27-591): T2 sequence (P25961 27-591)

rat renal membranes = conditions: Rosenblatt 1981; cited from earlier work

T3 sequence (P49190 25-550): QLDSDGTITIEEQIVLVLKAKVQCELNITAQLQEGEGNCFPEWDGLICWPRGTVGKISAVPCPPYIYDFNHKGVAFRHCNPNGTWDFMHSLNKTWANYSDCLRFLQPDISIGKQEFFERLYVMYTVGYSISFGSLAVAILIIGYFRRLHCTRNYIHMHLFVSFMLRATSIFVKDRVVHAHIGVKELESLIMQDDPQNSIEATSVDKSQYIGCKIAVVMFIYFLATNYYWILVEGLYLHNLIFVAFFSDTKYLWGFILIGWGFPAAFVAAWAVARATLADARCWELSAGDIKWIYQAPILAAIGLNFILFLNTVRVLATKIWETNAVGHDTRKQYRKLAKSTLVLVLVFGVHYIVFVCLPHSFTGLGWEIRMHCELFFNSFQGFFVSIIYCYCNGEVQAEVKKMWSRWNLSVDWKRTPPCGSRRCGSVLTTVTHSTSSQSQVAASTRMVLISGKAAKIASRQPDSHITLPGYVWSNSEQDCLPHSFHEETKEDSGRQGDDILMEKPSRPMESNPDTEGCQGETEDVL

AVAEIQLMHQRAKH-NH2 [compound 3, AlaValAlaGluIleGlnLeuMetHisGlnArgAlaLysHis-amide]
Emax (PTH-1 receptor [1]): 235 ± 3 picomole/well

PTH(1-13) (AVSEIQLMHNLGK-NH2; UniProt P04089 32-44, looked up, fragment) [native rat PTH fragment analog]
cAMP response of native rat PTH fragments (in words) (PTH-1 receptor [2]): little or no cAMP response

AVAEIQLMHARAKW-NH2 [Peptide #2, AlaValAlaGluIleGlnLeuMetHisAlaArgAlaLysTrp-amide]
Emax (PTH-1 receptor [1]): 262 ± 9 picomole/well
fold more potent than native PTH(1-14) (PTH-1 receptor [1]; LLC-PK1 cells stably expressing hPTH-1 receptor, cAMP): 220 fold
Emax [3]: 382 picomole/well

PTH(1-9) (AVSEIQLMH-NH2; UniProt P04089 32-40, looked up, fragment) [native rat PTH fragment analog]
cAMP response of native rat PTH fragments (in words) (PTH-1 receptor [2]): little or no cAMP response

PTH(1-11) (AVSEIQLMHNL-NH2; UniProt P04089 32-42, looked up, fragment) [native rat PTH fragment analog]
cAMP response of native rat PTH fragments (in words) (PTH-1 receptor [2]): little or no cAMP response

AVAEIQLMHARA-NH2 [compound 5, AlaValAlaGluIleGlnLeuMetHisAlaArgAla-amide]
Emax (hPTH-2 Receptor): 501 picomole/well
cAMP signaling activity (in words) (PTH-1 receptor [1]): signaling activity was readily observed
Emax (PTH-1 receptor [1]): 238 ± 9 picomole/well

PTH(15-34)
cAMP response (PTH-1 receptor [4]): inactive

PTH(1-12) (AVSEIQLMHNLG-NH2; UniProt P04089 32-43, looked up, fragment) [native rat PTH fragment analog]
cAMP response of native rat PTH fragments (in words) (PTH-1 receptor [2]): little or no cAMP response

PTH(1-34)
bone density [5]: increases in bone density
fold weaker with the truncated receptor than with the intact receptor [6]: 1000 fold

PTH(1-10) (AVSEIQLMHN-NH2; UniProt P04089 32-41, looked up, fragment) [native rat PTH fragment analog]
cAMP response of native rat PTH fragments (in words) (PTH-1 receptor [2]): little or no cAMP response

[A3,Q10]rPTH(1-10) (AVAEIQLMHQ-NH2)
cAMP signaling activity (in words) (PTH-1 receptor [1]): elicited some activity

PTHrP(1-16) (AVSEHQLLHDKGKSIQ; Parathyroid hormone-related protein; UniProt P12272 37-52, looked up, fragment) [short NH2-terminal PTHrP peptide from the literature]
AC activity [7]: inactive

AVAEIQLMHARAK-NH2 [compound 4, AlaValAlaGluIleGlnLeuMetHisAlaArgAlaLys-amide]
Emax (hPTH-2 Receptor): 501 picomole/well
cAMP signaling activity (in words) (PTH-1 receptor [1]): signaling activity was readily observed
Emax (PTH-1 receptor [1]): 239 ± 7 picomole/well

bPTH(1-12) (AVSEIQFMHNLG; Parathyroid hormone; UniProt P01268 32-43, looked up, fragment) [short NH2-terminal PTH peptide from the literature]
adenyl cyclase activity (rat renal membranes): inactive
